Source: PubChem BioAssay AID248 (DTP/NCI, 2004)
Where “and” joins values, the source holds several entries; their conditions need not be identical. Equal entries are not always repeated. Toxic doses and inconclusive results are not listed. Rule as the data show it: active = T/C of 150% or more; inactive = T/C below 125%.

Test system: L1210 leukemia ip in BDF1 mice, survival T/C
Test: NCI In Vivo Anticancer Drug Screen. Data for tumor model L1210 Leukemia (intraperitoneal) in B6D2F1 (BDF1) mice
Conditions: endpoint: mean survival time, higher = longer survival
Method in brief: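 In this screen, tumor-bearing mice given compound are compared to those given vehicle, and their survival values are reported as a treated-to-control quotient.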

[1] = dose: 100.0 mg/kg/injection, schedule: Q01DX009 (ip), vehicle: Klucel (hydroxypropylcellulose) (HPC)

Measured: T/C

OCNC(=S)c1c(Cl)cccc1Cl
inactive: dose: 100.0 mg/kg/injection, schedule: Q04DX003 (ip), vehicle: saline with Tween-80 100 % of control | dose: 200.0 mg/kg/injection, schedule: Q04DX003 (ip), vehicle: saline with Tween-80 102 % of control | dose: 400.0 mg/kg/injection, schedule: Q04DX003 (ip), vehicle: saline with Tween-80 102 % of control

CCN(CC)C1=C(Cl)C(=O)C(N(CC)CC)=C(Cl)C1=O
inactive: dose: 25.0 mg/kg/injection, schedule: Q04DX002 (ip), vehicle: gum acacia 95 % of control | dose: 50.0 mg/kg/injection, schedule: Q04DX002 (ip), vehicle: gum acacia 95 % of control

O=C1C=C(N2CCOCC2)c2cccc3cccc1c23
inactive: dose: 50.0 mg/kg/injection, schedule: Q01DX001 (ip), vehicle: Klucel (hydroxypropylcellulose) (HPC) 106 % of control | dose: 100.0 mg/kg/injection, schedule: Q01DX001 (ip), vehicle: Klucel (hydroxypropylcellulose) (HPC) 104 % of control | [1] 94 % of control | dose: 200.0 mg/kg/injection, schedule: Q01DX001 (ip), vehicle: Klucel (hydroxypropylcellulose) (HPC) 98 % of control | dose: 200.0 mg/kg/injection, schedule: Q01DX009 (ip), vehicle: Klucel (hydroxypropylcellulose) (HPC) 96 % of control

CN1CCN(C(=O)C(c2ccccc2)C2(O)CCCC2)CC1 (stereo not given)
inactive: dose: 5.0 mg/kg/injection, schedule: Q01DX001 (ip), vehicle: saline 96 % of control | dose: 10.0 mg/kg/injection, schedule: Q01DX001 (ip), vehicle: saline 105 % of control

Nc1nc2ncc(CNc3ccc(C(=O)NC(CCC(=O)O)C(=O)O)cn3)nc2c(=O)[nH]1 (stereo not given)
inactive: dose: 25.0 mg/kg/injection, schedule: Q01DX009 (ip), vehicle: saline with Tween-80 104 % of control | dose: 37.5 mg/kg/injection, schedule: Q01DX009 (ip), vehicle: saline with Tween-80 114 % of control and 119 % of control | dose: 50.0 mg/kg/injection, schedule: Q01DX009 (ip), vehicle: saline with Tween-80 114 % of control | dose: 75.0 mg/kg/injection, schedule: Q01DX009 (ip), vehicle: saline with Tween-80 108 % of control

CC=C1C(C(=O)O)C1C(=O)O (stereo not given)
inactive: dose: 25.0 mg/kg/injection, schedule: Q01DX009 (ip), vehicle: Klucel (hydroxypropylcellulose) (HPC) 93 % of control | dose: 50.0 mg/kg/injection, schedule: Q01DX009 (ip), vehicle: Klucel (hydroxypropylcellulose) (HPC) 93 % of control | [1] 95 % of control and 96 % of control | dose: 100.0 mg/kg/injection, schedule: Q04DX002 (ip), vehicle: saline 115 % of control | dose: 200.0 mg/kg/injection, schedule: Q04DX002 (ip), vehicle: saline 107 % of control | dose: 400.0 mg/kg/injection, schedule: Q04DX002 (ip), vehicle: saline 113 % of control

C=C(C)C(=O)N(C)C
inactive: dose: 100.0 mg/kg/injection, schedule: Q01DX009 (ip), vehicle: saline 105 % of control | dose: 200.0 mg/kg/injection, schedule: Q01DX009 (ip), vehicle: saline 113 % of control | dose: 400.0 mg/kg/injection, schedule: Q01DX009 (ip), vehicle: saline 103 % of control
